Measured values taken from patent publication US20170055529A1, “BROAD SPECTRUM WEED CONTROL IN FLOODED RICE BY IN-WATER APPLICATION OF AUXIN HERBICIDES” (priority 2015, published 2017).
Marks after values point to notes of the source that are not given here.

How the values were obtained:
Format in all cases: in vivo
[1] = system: CYPDI = Cyperus difformis (small-flower flatsedge); assay: Greenhouse in-water herbicidal activity (large pots); details: for Percent (%) Visual Injury Ratings - 16 DAA, CYPDI / Percent (%) Visual Injury Ratings - 22 DAA, CYPDI: greenhouse large pots; for pest or weed control at 280 g/ha / pest or weed control at 560 g/ha / pest or weed control at 1120 g/ha: Cyperus difformis, 744 h, read-out: Percent (%) Visual Injury Ratings - 31 DAA, CYPDI
Description: Weed seeds or nutlets of the desired test plant species were planted in puddled soil (mud) prepared by mixing shredded topsoil and deionized (DI) water in a 1:1 ratio in a standard cement mixer. […] Osmocote® (17:6:10 N:P:K; 0.5 teaspoon) was added to the bottom of a container. The container is a high-density polyethylene (HDPE) round container (4.163 L (1.1 gallon), 15 cm high×20.55 cm diameter; for treatment purposes, the surface area is calculated as 331 cm^2 with 1 hectare equivalent to 10^8 cm^2). The mud mixture (2,750 mL) was added to the container filling it half full. Stakes were placed horizontally in each container to create separate areas for which to plant each different plant species. Water was added on a regular basis to maintain the paddy flood, and supplemental lighting was provided with overhead metal halide 1000-Watt lamps as necessary.
Once the plants had reached the proper size (the growth stage of the various species ranged from 2 to 4 leaves), the containers were flooded with city water to a depth of 3 cm submerging the plants 80-100%. The outside of each container was measured and marked at a 3-cm line with a black permanent marker to eliminate water level variability during the trial period. Water was added daily to maintain this water depth. Triclopyr triethylammonium (as Garlon® 3 A, 360 g ae/L); triclopyr butoxyethyl ester (as Garlon® 4, 480 g ae/L); fluroxypyr methylheptyl ester (meptyl or MHE, as Starane® Ultra, 333 g ae/L); fluroxypyr acid (850 grams acid equivalent per kilogram (g ae/kg)); 2,4-dichlorophenoxyacetic acid dimethylammonium (2,4-D DMA, as Weedar® 64 EC, 456 g ae/L); 2,4-dichlorophenoxyacetic acid 2-ethylhexyl ester (2,4-D 2-EHE, as Agri Star®, 456 g ae/L); clopyralid olamine (as Stinger®, 360 g ae/L); and penoxsulam (as Grasp® SC, 240 g ai/L) were used. Each herbicide treatment for each pot was mixed in water (80 mL) and applied directly into the paddy water at rates adjusted to the surface area. The dry formulations were pre-weighed based on the rate of the active ingredient to be applied on a per unit area basis, placed in 30 mL vials, and capped. Granules were spread onto the top of the water in each pot and dispersed throughout the water. Treatments were replicated 3 times.
The treated plants and control plants were placed in a greenhouse as described above and water was added as needed to maintain a flood depth of 3 cm. […]

[2] = system: MOOVA = Monochoria vaginalis (monochoria); assay: Greenhouse in-water herbicidal activity (small pots)
Description: (§1) Weed seeds of the desired test plant species were planted in puddled soil (mud) prepared by mixing a non-sterilized mineral soil (approximately 50 percent silt, 26 percent clay, and 24 percent sand, with a pH of about 7.6 and an organic matter content of about 2.9 percent) and water at a 1:1 volumetric ratio. The prepared mud was dispensed in 365 milliliter (mL) aliquots into 16-ounce (oz.) non-perforated plastic pots with a surface area of 86.59 square centimeters (cm^2) leaving a headspace of 3 centimeters (cm) in each pot. Mud was allowed to dry overnight prior to planting or transplanting. Rice seeds were planted in Sun Gro® MetroMix® 360 planting mixture, which typically has a pH of 6.0 to 6.8 and an organic matter content of about 30 percent, in plastic plug trays. Seedlings at the second or third leaf stage of growth were transplanted into 840 mL of mud contained in 32-oz. non-perforated plastic pots with a surface area of 86.59 cm^2 four days prior to herbicide application. The paddy was created by filling the headspace of the pots with 2.5 to 3 cm of water. When required to ensure good germination and healthy plants, a fungicide treatment and/or other chemical or physical treatment was applied. The plants were grown for 4-22 days (d) in a greenhouse with an approximate 14-hour (h) photoperiod which was maintained at about 29° C. during the day and 26° C. during the night. Nutrients were added as Osmocote® (19:6:12, Nitrogen:Phosphorus:Potassium (N:P:K)+minor nutrients) at 2 g per 16 oz. pot and 4 g per 32 oz. pot. Water was added on a regular basis to maintain the paddy flood, and supplemental lighting was provided with overhead metal halide 1000-Watt lamps as necessary. The plants were used for testing when they reached the second or third true leaf stage.
(§2) Triclopyr triethylammonium (as Grandstand® R, 359.5 grams acid equivalent per liter (g ae/L)); fluroxypyr methylheptyl ester (meptyl or MHE, as Starane™, 179.8 g ae/L); 2,4-dichlorophenoxyacetic acid dimethylammonium (2,4-D DMA, as Weedar® 64, 455.4 g ae/L); and penoxsulam (as Grasp® SC, 239.7 grams active ingredient per liter (g ai/L) were used. Measured amounts of formulated compounds were placed in individual 120 mL glass vials and were dissolved in 40 mL of an aqueous mixture containing 1.25% volume per volume (v/v) Agri-Dex® crop oil concentrate. Generally, multiple concentrations were tested utilizing the same stock solution. Applications were made by injecting an appropriate amount of the application solution into the aqueous layer of the paddy. Control plants were treated in the same manner with the solvent blank.
(§3) The treated plants and control plants were placed in a greenhouse as described above and water was added as needed to maintain a paddy flood. After approximately 3 weeks the condition of the test plants, compared with that of the untreated plants, was determined visually and scored on a scale of 0 to 100 percent where 0 corresponds to no injury or growth reduction and 100 corresponds to complete kill.

[3] = system: CYDPI = Cyperus difformis (small-flower flatsedge); assay: as above
Description: as §1, §2, §3

[4] = system: SCPJU = Schoenoplectus juncoides (Japanese bulrush); assay: as above
Description: as §1, §2, §3

[5] = system: 'Wells' rice (Medium grain rice variety from Arkansas, USA); assay: Greenhouse in-water application, transplanted paddy rice (small pots), crop injury
Description: as §1, §2, §3

[6] = system: 'M202' rice (Japonica rice variety from California, USA); assay: as above
Description: as §1, §2, §3

| Compound | Percent (%) Visual Injury Ratings - 16 DAA, CYPDI ([1]; 35 g ae/ha) [%] | Percent (%) Visual Injury Ratings - 22 DAA, CYPDI ([1]; 35 g ae/ha) [%] | Percent (%) Visual Injury Ratings - 16 DAA, CYPDI ([1]; 70 g ae/ha) [%] | Percent (%) Visual Injury Ratings - 22 DAA, CYPDI ([1]; 70 g ae/ha) [%] | Percent (%) Visual Injury Ratings - 16 DAA, CYPDI ([1]; 140 g ae/ha) [%] | Percent (%) Visual Injury Ratings - 22 DAA, CYPDI ([1]; 140 g ae/ha) [%] | Percent (%) Visual Injury Ratings - 16 DAA, CYPDI ([1]; 280 g ae/ha) [%] | Percent (%) Visual Injury Ratings - 22 DAA, CYPDI ([1]; 280 g ae/ha) [%] | pest or weed control at 280 g/ha [1] [%] | pest or weed control at 560 g/ha [1] [%] | pest or weed control at 1120 g/ha [1] [%] | Percent (%) Visual Injury Ratings - 20 DAA, MOOVA ([2]; 280 g ae/ha in-water) [%] | Percent (%) Visual Injury Ratings - 20 DAA, MOOVA ([2]; 560 g ae/ha in-water) [%] | Percent (%) Visual Injury Ratings - 20 DAA, MOOVA ([2]; 1120 g ae/ha in-water) [%] | Percent (%) Visual Injury Ratings - 20 DAA, CYDPI ([3]; 280 g ae/ha in-water) [%] | Percent (%) Visual Injury Ratings - 20 DAA, CYDPI ([3]; 560 g ae/ha in-water) [%] | Percent (%) Visual Injury Ratings - 20 DAA, CYDPI ([3]; 1120 g ae/ha in-water) [%] | Percent (%) Visual Injury Ratings - 20 DAA, SCPJU ([4]; 280 g ae/ha in-water) [%] | Percent (%) Visual Injury Ratings - 20 DAA, SCPJU ([4]; 560 g ae/ha in-water) [%] | Percent (%) Visual Injury Ratings - 20 DAA, SCPJU ([4]; 1120 g ae/ha in-water) [%] | further results |
| --- | --- | --- | --- | --- | --- | --- | --- | --- | --- | --- | --- | --- | --- | --- | --- | --- | --- | --- | --- | --- | --- |
| O=C(O)COc1ccc(Cl)cc1Cl [2,4-D DMA (Weedar ® 64), dimethylammonium 2-(2,4-dichlorophenoxy)acetate] | 99 | 89 | 100 | 76 | 98 | 92 | 97 | 98 | 100 | 100 | 100 | 90 | 100 | 99 | 90 | 100 | 100 | 70 | 100 | 100 | Percent (%) Visual Injury Ratings - 20 DAA, Wells′ Rice ([5]; 280 g ae/ha in-water): 0%; Percent (%) Visual Injury Ratings - 20 DAA, Wells′ Rice ([5]; 560 g ae/ha in-water): 0%; Percent (%) Visual Injury Ratings - 20 DAA, Wells′ Rice ([5]; 1120 g ae/ha in-water): 0%; Percent (%) Visual Injury Ratings - 20 DAA, M202′ Rice ([6]; 280 g ae/ha in-water): 0%; Percent (%) Visual Injury Ratings - 20 DAA, M202′ Rice ([6]; 560 g ae/ha in-water): 0%; Percent (%) Visual Injury Ratings - 20 DAA, M202′ Rice ([6]; 1120 g ae/ha in-water): 10* % |
| CCCCCCC(C)OC(=O)COc1nc(F)c(Cl)c(N)c1Cl (stereo not drawn) [Fluroxypyr-meptyl (Starane ® Ultra), 1-methylheptyl 2-[(4-amino-3,5-dichloro-6-fluoro-2-pyridinyl)oxy]acetate] | 8 | 28 | 13 | 28 | 20 | 79 | 33 | 89 | 100 | 100 | 100 | 85 | 100 | 100 | 100 | 100 | 100 | 60 | 90 | 100 | Percent (%) Visual Injury Ratings - 20 DAA, Wells′ Rice ([5]; 280 g ae/ha in-water): 0%; Percent (%) Visual Injury Ratings - 20 DAA, Wells′ Rice ([5]; 560 g ae/ha in-water): 0%; Percent (%) Visual Injury Ratings - 20 DAA, Wells′ Rice ([5]; 1120 g ae/ha in-water): 10%; Percent (%) Visual Injury Ratings - 20 DAA, M202′ Rice ([6]; 280 g ae/ha in-water): 0%; Percent (%) Visual Injury Ratings - 20 DAA, M202′ Rice ([6]; 560 g ae/ha in-water): 0%; Percent (%) Visual Injury Ratings - 20 DAA, M202′ Rice ([6]; 1120 g ae/ha in-water): 35% |
| O=C(O)COc1nc(Cl)c(Cl)cc1Cl [Triclopyr triethanolamine (Garlon ® 3A), triethylammonium 2[(3,5,6-trichloro-2-pyridinyl)oxy]acetate] | 100 | 100 | 98 | 100 | 97 | 100 | 100 | 100 | 97 | 99 | 100 | 95 | 99 | 100 | 100 | 100 | 100 | 70 | 95 | 100 | Percent (%) Visual Injury Ratings - 20 DAA, Wells′ Rice ([5]; 280 g ae/ha in-water): 0%; Percent (%) Visual Injury Ratings - 20 DAA, Wells′ Rice ([5]; 560 g ae/ha in-water): 0%; Percent (%) Visual Injury Ratings - 20 DAA, Wells′ Rice ([5]; 1120 g ae/ha in-water): 10%; Percent (%) Visual Injury Ratings - 20 DAA, M202′ Rice ([6]; 280 g ae/ha in-water): 0%; Percent (%) Visual Injury Ratings - 20 DAA, M202′ Rice ([6]; 560 g ae/ha in-water): 0%; Percent (%) Visual Injury Ratings - 20 DAA, M202′ Rice ([6]; 1120 g ae/ha in-water): 20% |
